Experimental data taken from patent publication US8097656B2, “Nitrogenated trans-stilbene analogs, method for the obtention and medical applications thereof” (Dominion Pharmakine S.L, priority 2005, dated 2012).

Assays:
HSE cells = assay: Migration of HSE cells treated with MC-MA375 (modified Boyden chamber); type: cell-based, human; conditions: for Increase in migration of HSE induced by MC-A375 (in words): 12.5 μM 30 min prior to MC-A375; for Migration of HSE's treated with MC-MA375 (No. cells per field): 12.5 μM, 30 min before MC-MA375, 24 h, control 10.0 ± 4, treatment alone 35.0 ± 8.0
From the text: isolation of primary human cultures of hepatic sinusoidal endothelial (HSE) hepatic stellate cells (HSCs). The primary cultures of human HSE and HSC cells were obtained by non-tumoral hepatic tissue serial profusion with collagenase and pronase solutions, followed by Nycodenz gradient and seeded on 24-well plates (0.5×10^4 cells/cm^2) in DMEM. supplemented with 10% FBS.
Human HSC and HSE cell migration tests (see Table 3). Primary cultured hepatic endothelial cells (25×10^5) or hepatic stellate cells (2×10^4) were seeded in the upper compartment of modified Boyden chambers equipped with a polycarbonate filter of an 8 μm pore size. Some cells were incubated in the presence or absence of 12.5 μM of azaresveratrol, 30 minutes prior to adding conditioned tumor medium. Twenty-four (24) hours later (in the case of the endothelial cells) or 4 hours later (in the case of hepatic star cells) the number of cells having passed through the membrane was determined. The cells were fixed, were stained with hematoxylin eosine and were counted under the microscope (20×) in 5 fields per well.

MA375 cells = assay: MA375 cell adhesion to immobilized VCAM-1 substrates; type: cell-based, human; conditions: 2.5 μM; for Adhesion of MA375 cells with H2O2 to immobilized VCAM-1 (% cells adhered): 10 μM H2O2, control 21.0 ± 4, H2O2 alone 41.3 ± 4.2; for Adhesion of MA375 cells treated with IL-18 to immobilized VCAM-1 (% cells adhered): control 21.0 ± 4, IL-18 alone 31.5 ± 3.2
Method: MB16 and MA375 cell adhesion to immobilized VCAM-1 substrates. The MB16 and MA375 cell adhesion tests were conducted on immobilized VCAM-1 substrates (2 μg/ml of recombinant human VCAM-1, R&D Systems, Minneapolis, Minn.) on 96-well plates. To avoid non-specific attachment to the plastic, 0.5% BSA dissolved in PBS was added to the wells for 2 hours at ambient temperature prior to conducting the adhesion test. The melanoma cells were preincubated with 2.5 μM of the compounds to be tested (azaresveratrol, see Table 2; JE1:2, JE2:1 and JE2:2 see FIG. 2; JEM2:2-01 and JEM2:1-02 see FIG. 7; YEF02, YEF03, YEF07, YEF05B, YEF07B and YEF05H. see FIG. 9) for 30 minutes, to which 10 μM of hydrogen peroxide or 10 ng/ml of IL-18 were added, respectively for a further 24 hours. Afterward, the cells were washed and marked with the BCECF-AM fluorescent probe (carboxyfluorescein, 2′,7′-bis-(2-carboxy-ethyl)-5-(6)carboxyfluorescein aminoxymethyl ester). Thirty minutes later, a washing process was performed to remove the excess fluorochromium, the number of viable cells being calculated by means of the trypan blue exclusion test and (5×10^4 cells/well) being added to the 96-well plate. The co-culture plates were incubator-incubated at 37° C. for 1 hours. The percentage of cellular adhesion was calculated by measuring the fluorescence emitted by the adhered cells (obtained after washing the plate) with regard to the fluorescence emitted by the total number of cells added. The results in the figures are given in values related to the adhesion percentages of the untreated melanoma cells.

Compound	Increase in migration of HSE induced by MC-A375 (in words) (HSE cells)	Migration of HSE's treated with MC-MA375 (No. cells per field) (HSE cells)	Adhesion of MA375 cells with H2O2 to immobilized VCAM-1 (% cells adhered) (MA375 cells)	Adhesion of MA375 cells treated with IL-18 to immobilized VCAM-1 (% cells adhered) (MA375 cells)
Oc1ccc(/N=C/c2cc(O)cc(O)c2)cc1 [azaresveratrol, 5-((E)-(4-Hydroxyphenylimino)methyl)benzene-1,3-diol]	abolished	15.5 ± 30 No. cells per field	4.5 ± 0.3 % cells adhered	5.0 ± 0.3 % cells adhered
Oc1ccc(C=Cc2cc(O)cc(O)c2)cc1 [resveratrol, reference compound]	abolished	13.5 ± 5.0 No. cells per field	6.5 ± 0.5 % cells adhered	5.5 ± 0.4 % cells adhered
